How the values were obtained:
[1] = biological target: T1, interaction between CRBN and GSPT1 (Homo sapiens, UniProt P15170+Q96SW2); assay: SPARK reporter CRBN-EGFP-HOTag3 / GSPT1-HOTag6 in HEK293 cells; assay type: cell-based; details: time-lapse imaging
T1 construct: expressed in transfected cells; host or cells: HEK293
Description: Many analogs and derivatives of IMiDs have recently been designed and explored as drug leads. […] To examine whether SPARK can detect CC-885 induced protein-protein interactions, HOTag6 was genetically fused to GSPT1 and co-expressed with CRBN-EGFP-HOTag3 in HEK293 cells. […] Thus, SPARK also detects CC-885 induced protein-protein interactions.

[2] = tested on: protein kinase A (PKA) activity; assay: PKA-SPARK phase separation kinase reporter in HEK293 cells; assay type: cell-based, human; details: for effect of pre-incubation on isoprenaline-induced droplet formation / PKA-SPARK signal: HEK293 cells, pre-incubation before isoprenaline
Description: To design a SPARK-based PKA, reporter (named PKA-SPARK), a consensus peptide sequence was utilized that is specifically phosphorylated by PKA, as described in Durocher et al., (2000). The molecular basis of FHA domain: phosphopeptide binding specificity and implications for phospho-dependent signaling mechanisms. Mol Cell 6, 1169-1182. To introduce PKA activity-dependent PPI, forkhead-associated domain 1 (FHA1) was sued, which is a phosphothreonine binding domain. […] These two fusion sequences were connected by a “self-cleaving” 2A sequence. The rationale was that substrate and the FHA1 would induce PKA activity-dependent protein-protein interaction, the two HOTags introduce multivalency; and upon PKA activation, multivalent protein-protein interactions would be induced, leading to phase separation and formation of EGFP droplets.
To test the construct, the β-adrenergic agonist isoprenaline was added to HEK293 cells that endogenously express β-adrenergic receptors (βAR). βAR activation induces GDP for GTP exchange in the heteratrimeric G protein Gs, and GTP-bound Gαs activates adenylyl cyclase (AC), which converts ATP into cAMP that activates PKA. […] In order to confirm that the phase separation results from phosphorylation of PKA-SPARK at the expected threonine residue, we changed the threonine to alanine in the PKA substrate sequence.
Next it was tested whether phase separation of the reporter is reversible, i.e. whether the EGFP droplets would disassemble or dissolve when PKA is inactivated. Cells were pre-incubated with isoprenaline to induce phase separation, then isoprenaline was removed and H89 added to inactivate PKA. […] As a control, the EGFP droplets were stable over time in the cells with removal of isoprenaline but addition of medium without H89. […] To examine whether PKA-SPARK could quantitatively measure the droplets' disassembly over time after PKA inhibition, we defined “SPARK signal” as the sum of fluorescent droplets' pixel intensity divided by sum of cells' pixel intensity. Upon addition of H89, the SPARK signal decreased over time. In contrast, for the control the SPARK signal remained constant over time.
Time-lapse fluorescence imaging of PKA-SPARK was performed at 10 seconds per frame. […] PKA activation upon addition of isoprenaline was confirmed by AKAR2 reporter. Small droplets of PKA-SPARK were detected as early as at 20 seconds upon addition of isoprenaline. The quick activation of PKA is consistent with rapid activation of the βAR-cAMP-PKA pathway. The small droplets grew quickly and coalesced into large and intensively fluorescent droplets, which were up to 10-fold brighter than the cellular fluorescence before PKA activation. […] Therefore, PKA-SPARK achieves up to 10-fold fluorescence increase, compared to prior art AKAR2 and PKA-KTR reporters, which have ˜10% and ˜30% fluorescence ratio change, respectively. […] The results also verified that PKA-SPARK could detect PKA activity over a wide range of reporter expression. Lastly the concentration of PKA-SPARK (2-10 μM) appeared to have no effect on kinetics of droplet assembly and disassembly.
In additional experiments, PKA was activated via the G-coupled GPCR βAR. Isoprenaline was added to activate endogenous βARs in HEK293 cells.

ERK activity = assay: ERK-SPARK phase separation kinase reporter in HEK293 cells; details: for effect of pre-incubation on phase separation of ERK-SPARK upon addition of EGF: HEK293 cells, pre-incubation before EGF
Description: To determine whether the SPARK design generalizes, the highly conserved kinase ERK was utilized in a second pair of reporter fusion proteins. To design a SPARK-based ERK reporter (ERK-SPARK), the ERK activity-sensing motifs that were used for previous FRET-based ERK reporters were employed. One of the ERK activity-sensing motifs is a phosphopeptide sequence from Cdc25C, followed by an ERK-specific docking site that determines substrate specificity. The companion fragment is a WW domain that binds the phosphorylated substrate. The ERK substrate sequence was fused to EGFP followed by HOTag3, and the WW domain was fused to EGFP followed by HOTag6. The two fusions were connected by a “self-cleaving” 2A sequence. The pair of reporter fusion proteins was expressed in HEK293 cells exposed to epidermal growth factor (EGF). EGF binds the EGF receptor, resulting in ERK activation. […] Because the ERK docking site was previously shown to be critical for ERK recognition and binding to substrate, a reporter lacking the 4-amino-acid docking site was generated.
To investigate whether ERK-SPARK could detect GPCR-induced ERK activity, a hexapeptide full agonist for protease-activated receptor-1 was added to HEK293 cells.

PKA activity = assay: PKA-SPARK in zebrafish embryo muscle cells; assay type: in vivo; details: 24 hrs APF, upon addition of isoprenaline

T1 sequence (Q96SW2 whole entry): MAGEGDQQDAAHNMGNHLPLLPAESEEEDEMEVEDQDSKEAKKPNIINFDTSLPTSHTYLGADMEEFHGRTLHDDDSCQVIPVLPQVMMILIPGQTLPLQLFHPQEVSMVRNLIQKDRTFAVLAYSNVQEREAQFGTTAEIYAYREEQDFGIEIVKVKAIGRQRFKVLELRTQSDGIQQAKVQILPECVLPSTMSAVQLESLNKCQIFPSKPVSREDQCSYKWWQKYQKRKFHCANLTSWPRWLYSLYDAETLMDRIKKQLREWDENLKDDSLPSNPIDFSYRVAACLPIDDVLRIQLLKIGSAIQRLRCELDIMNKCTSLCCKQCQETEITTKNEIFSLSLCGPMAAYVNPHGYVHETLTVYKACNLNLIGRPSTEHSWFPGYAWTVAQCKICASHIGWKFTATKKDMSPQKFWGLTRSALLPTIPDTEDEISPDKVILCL
T1 sequence (P15170 whole entry): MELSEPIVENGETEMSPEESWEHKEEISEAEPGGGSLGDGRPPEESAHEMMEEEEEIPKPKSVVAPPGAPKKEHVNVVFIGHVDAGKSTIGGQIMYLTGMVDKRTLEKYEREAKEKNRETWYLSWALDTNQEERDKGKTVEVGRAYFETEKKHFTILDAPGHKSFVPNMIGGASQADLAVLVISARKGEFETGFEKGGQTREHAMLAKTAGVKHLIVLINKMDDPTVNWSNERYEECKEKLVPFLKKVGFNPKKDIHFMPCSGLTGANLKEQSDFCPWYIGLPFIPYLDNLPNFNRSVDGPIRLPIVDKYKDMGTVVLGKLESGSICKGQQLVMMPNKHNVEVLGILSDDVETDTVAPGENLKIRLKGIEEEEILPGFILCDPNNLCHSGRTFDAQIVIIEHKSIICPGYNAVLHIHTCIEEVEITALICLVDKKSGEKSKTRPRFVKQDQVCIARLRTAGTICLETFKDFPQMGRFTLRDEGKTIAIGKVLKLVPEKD

Cc1ccc(NC(=O)NCc2ccc3c(c2)CN(C2CCC(=O)NC2=O)C3=O)cc1Cl (centres unmarked) [CC-885]
droplet formation (punctal green fluorescence) upon addition [1]: intensely bright and punctal green fluorescence

O=S(=O)(NCCNC/C=C/c1ccc(Br)cc1)c1cccc2cnccc12 [H89]
effect of pre-incubation on isoprenaline-induced droplet formation / PKA-SPARK signal [2]: abolished isoprenaline-induced droplet formation | EGFP droplet disassembly when PKA is inactivated ([2]; cells pre-incubated with isoprenaline, isoprenaline removed, H89 added): EGFP droplets disassembled rapidly

O=C(NOC[C@H](O)CO)c1ccc(F)c(F)c1Nc1ccc(I)cc1F [PD 0325901]
effect of pre-incubation on phase separation of ERK-SPARK upon addition of EGF (ERK activity): abolished phase separation

C[S+]([O-])c1ccc(-c2nc(-c3ccncc3)c(-c3ccc(F)cc3)[nH]2)cc1 (centres unmarked) [SB 203580]
effect of pre-incubation on phase separation of ERK-SPARK upon addition of EGF (ERK activity): did not abolish formation of EGFP droplets

COc1ccccc1OCCNCC(O)COc1cccc2[nH]c3ccccc3c12 (centres unmarked) [carvedilol]
effect of pre-incubation on isoprenaline-induced droplet formation / PKA-SPARK signal [2]: abolished the sustained PKA-SPARK signals

CC(C)NCC(O)c1ccc(O)c(O)c1 (centres unmarked) [isoprenaline]
persistence of EGFP droplets (sustained PKA activity) ([2]; endogenous βARs in HEK293 cells): at least 3 hrs | fluorescent droplet formation upon addition of βAR agonist ([2]; reporter-expressing HEK293 cells): fluorescent droplets formed | earliest detection of small PKA-SPARK droplets after addition ([2]; time-lapse imaging at 10 seconds per frame): 20 s | EGFP droplet formation in muscle cells (PKA activity): EGFP droplet formation

EGF: epidermal growth factor; binds the EGF receptor, resulting in ERK activation (NSDSECPLSHDGYCLHDGVCMYIEALDKYACNCVVGYIGERCQYRDLKWWELR; UniProt P01133 971-1023, looked up)
EGFP droplet formation upon addition of stimulus (ERK activity; ERK-SPARK expressing HEK293 cells): EGFP droplets formed

Source: US11448654B2, “Protein-protein interaction assessed by detecting localized coiled coil subunits” (The Regents of the University of California, priority 2017, dated 2022)
